These results are taken from patent US20160130234A1, “PHARMACEUTICAL COMPOSITIONS BASED ON PHOTOCHEMICALLY STABLE SILVER COMPLEXES, CHLOREXIDINE AND CATIONIC SURFACTANTS” (PAVIA FARMACEUTICI S.R.L., priority 2013, published 2016).

Assay [1] relates to Staphylococcus epidermidis. The conditions noted are these: cited from earlier work.
The subject of another assay is sepsis. The conditions noted are these: burns treated with silver nitrate; decreased from 60%; cited from earlier work.
The test system of assay [2] is Staphylococcus aureus (ATCC-6538) and Pseudomonas aeruginosa (ATCC-15442). As to the kind of experiment: quantitative suspension test for bactericidal activity, UNI EN 1272:2009. Format: cell-based.
Procedure: The bactericidal activity was tested on aqueous solutions of the complex of Example 1, (i.e. where the ligand L coordinated to the silver ion is the 2-Mercapto-5-benzimidazolesulfonic acid sodium salt).
The bactericidal activity tests were carried out according to UNI EN 1272:2009 and UNI EN 13697:2001 standards, which makes reference to chemical disinfectants and antiseptics, by using the following test organism: Staphylococcus aureus (ATCC-6538), as representative of Gram-positive bacteria and Pseudomonas aeruginosa (ATCC-15442), as representative of Gram-negative bacteria.

As for polyhexametylene biguanide, the “development of resistance by Staphylococcus epidermidis” value in assay [1] is recorded as “no evidence of resistance was observed”.

Take `O=[N+]([O-])[O-].[Ag+]` [Silver Nitrate]: the “number of deaths that were a result of sepsis” value in the assay with sepsis is listed as 28%. Besides, in assay [2] (after exposure to ambient light, reduction of Ag^+ to Ag^∘), the “antimicrobial activity after exposure to ambient light” value was “lose the antimicrobial activity”. In assay [2] (solution of comparable concentration), the “reduction of bacterial count compared with the silver complex” value was “analogously”.

On to `[H]/N=C(\N/C(=N/[H])NCCCCCCNC(=N)NC(=N)Nc1ccc(Cl)cc1)Nc1ccc(Cl)cc1` [chlorhexidine], for which the “development of resistance by Staphylococcus epidermidis” value in assay [1] is on record as “no evidence of resistance was observed”.
